Consider eight compounds from publication PMC9467581 (Journal of Enzyme Inhibition and Medicinal Chemistry, 2022).

As usually defined, the IC50 is the concentration that inhibits the measured activity by half. Broadly, the Ki is the dissociation constant of the complex between target and ligand, obtained from inhibition or displacement.

Molecules are shown by their SMILES. Structures can show the parent of a compound that is named as a salt. Where two headings read alike, the source gives them in different places.

In assay [1] the target is T1, eqBuChE (BuChE from equine serum) (Equus caballus, UniProt P81908).
T1 construct: eqBuChE (BuChE from equine serum); from tissue; host or cells: equine serum
T1 sequence (P81908 whole entry): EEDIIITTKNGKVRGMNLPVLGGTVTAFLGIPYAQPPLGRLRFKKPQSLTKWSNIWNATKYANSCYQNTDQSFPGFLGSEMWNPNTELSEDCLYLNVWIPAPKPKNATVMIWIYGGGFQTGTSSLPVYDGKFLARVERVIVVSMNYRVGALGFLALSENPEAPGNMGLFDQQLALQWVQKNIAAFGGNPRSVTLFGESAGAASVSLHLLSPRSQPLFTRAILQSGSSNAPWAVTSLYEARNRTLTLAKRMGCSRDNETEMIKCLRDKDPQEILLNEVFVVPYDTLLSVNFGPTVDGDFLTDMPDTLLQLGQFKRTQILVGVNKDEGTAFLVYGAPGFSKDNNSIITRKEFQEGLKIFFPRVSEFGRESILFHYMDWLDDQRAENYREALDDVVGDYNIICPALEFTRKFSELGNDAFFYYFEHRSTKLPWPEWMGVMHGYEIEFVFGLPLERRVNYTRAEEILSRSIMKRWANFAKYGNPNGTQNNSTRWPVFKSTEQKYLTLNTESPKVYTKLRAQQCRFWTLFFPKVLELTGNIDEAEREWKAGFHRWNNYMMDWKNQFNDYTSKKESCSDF
Put plainly: biochemical. The assay is classed as biochemical. The settings on record: for BuChE selectivity: IC50(AChE)/IC50(BuChE); for IC50: [S] = 112 µM, mean ± SD. The procedure: (§1) The inhibitory activity of 12a–12d against AChE and BuChE was carried out following minor modifications of the Ellman assay,[30] as reported previously[31] using Thermo Scientific^TM Varioskan^TM LUX microplate reader and Greiner F-bottom 96-well plates.

Assay [2] has as its target T2, eeAChE (AChE from Electrophorus electricus) (Electrophorus electricus, UniProt O42275). The note with it: [S] = 121 µM; cited from earlier work.
A further assay has as its target AChE. The note with it: mixed inhibition of AChE; cited from earlier work.
For a further assay, the target named is BuChE. Also on record: method as in PMID 33228403. The note with it: mixed inhibition of BuChE; cited from earlier work.
Assay [3] deals with T2, eeAChE (AChE from Electrophorus electricus). Put plainly: biochemical. The settings on record: [S] = 121 µM; mean ± SD. The procedure: as §1

T2 sequence (O42275 24-633): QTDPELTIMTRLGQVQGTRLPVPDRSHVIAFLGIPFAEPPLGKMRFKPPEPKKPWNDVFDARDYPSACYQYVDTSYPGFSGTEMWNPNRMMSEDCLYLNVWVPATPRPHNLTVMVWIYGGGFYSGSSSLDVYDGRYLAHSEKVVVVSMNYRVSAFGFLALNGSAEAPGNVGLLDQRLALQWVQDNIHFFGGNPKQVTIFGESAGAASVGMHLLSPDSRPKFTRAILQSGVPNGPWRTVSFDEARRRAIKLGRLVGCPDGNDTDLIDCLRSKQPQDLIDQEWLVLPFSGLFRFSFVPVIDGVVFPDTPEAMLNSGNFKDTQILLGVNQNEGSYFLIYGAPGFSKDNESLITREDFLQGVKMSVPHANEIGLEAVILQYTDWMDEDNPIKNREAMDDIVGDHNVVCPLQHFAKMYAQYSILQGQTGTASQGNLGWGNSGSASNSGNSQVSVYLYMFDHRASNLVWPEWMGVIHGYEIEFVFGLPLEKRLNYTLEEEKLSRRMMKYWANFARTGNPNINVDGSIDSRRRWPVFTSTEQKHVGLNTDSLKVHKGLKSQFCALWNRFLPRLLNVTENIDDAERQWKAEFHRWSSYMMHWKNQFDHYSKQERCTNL

In turn, `OC[C@H]1NC[C@H](O)[C@@H](O)[C@@H]1O` [Compound 4, 1-deoxynojirimycin, reference compound] came in with a BuChE selectivity in assay [1] above 10. Besides, the IC50 in assay [2] was above 100 µM.
Take `OC[C@@H]1[C@@H](O)[C@H](O)[C@@H](O)CN1CCCCCNC(=[Se])Nc1ccc(Br)cc1` [Compound 8]: the inhibition constant Ki on AChE was 5.8 µM.
Consider `OC[C@@H]1[C@@H](O)[C@H](O)[C@@H](O)CN1Cc1cn(CCCCCCNc2c3c(nc4ccccc24)CCCC3)nn1` [Compound 9], for which, on AChE, the Ki was 0.0071 µM and the αKi was 17.4 nM.
On to `COc1ccc(CCOCCCCCCN2C[C@H](O)[C@@H](O)[C@H](O)[C@H]2CO)cc1OC` [Compound 10], for which, on BuChE, the inhibition constant Ki is 1.4 µM and the αKi is 4.5 µM.
For `OC[C@@H]1[C@@H](O)[C@H](O)[C@@H](O)CN1CCCn1cc(Cn2nnc3ccccc32)nn1` [Compound 12a], the concentration for half-maximal inhibition (IC50) in assay [3] was above 500 µM. In assay [1], this compound had a BuChE selectivity above 10 and a 50% inhibitory concentration (IC50) of 50 ± 3 µM.
`OC[C@@H]1[C@@H](O)[C@H](O)[C@@H](O)CN1CCCCCCn1cc(Cn2nnc3ccccc32)nn1` [Compound 12b] returned an IC50 in assay [3] of 65 ± 2 µM. In assay [1], the “fold more potent BuChE inhibitor than 1-DNJ” value was determined as 1.5 fold, the BuChE selectivity is listed as 9.7 and the concentration for half-maximal inhibition (IC50) was 6.7 ± 0.7 µM. The “uncompetitive inhibition constant αKi” value in assay [1] (BuChE, Cornish-Bowden plots) was 12 ± 1 µM. In addition, the type of inhibition entry in assay [1] (BuChE, Cornish-Bowden plots (1/V vs. [I] and [S]/V vs. [I])) is reported as “mixed inhibitor”. Also, the inhibition constant Ki in assay [1] (BuChE, Cornish-Bowden plots, read-out: competitive inhibition constant Ki) worked out at 4.9 ± 0.4 µM.
Take `OC[C@@H]1[C@@H](O)[C@H](O)[C@@H](O)CN1CCCCCCCCn1cc(Cn2nnc3ccccc32)nn1` [Compound 12c, N-(1-(2-((1H-benzo[1,2,3]triazol-1-yl)methyl)-1H-1,2,3-triazol-1-yl)octyl)-1-deoxynojirimycin hydrochloride]: the IC50 in assay [3] is above 500 µM. In assay [1], this compound registered a BuChE selectivity above 19 and an IC50 of 26 ± 0.7 µM.
As for `OC[C@@H]1[C@@H](O)[C@H](O)[C@@H](O)CN1CCCCCCCCCCn1cc(Cn2nnc3ccccc32)nn1` [Compound 12d, N-(1-(2-((1H-benzo[1,2,3]triazol-1-yl)methyl)-1H-1,2,3-triazol-1-yl)decyl)-1-deoxynojirimycin hydrochloride], the IC50 in assay [3] was above 500 µM; in assay [1], 17 ± 0.7 µM.
